Experimental data published in PMC9598367, “Discovery and Preliminary Structure-Activity Investigation of 3-Substituted-1H-imidazol-5-yl-1H-indoles with In Vitro Activity towards Methicillin-Resistant Staphylococcus aureus” (Antibiotics, 2022).
Values after ≈ are worked out from the molar mass of the structure shown. Like-named read-outs stand apart in the source and are kept apart here. Marks after values point to notes of the source that are not given here.

What was measured:
[1] = test system: Cryptococcus neoformans ATCC208821; assay: Antifungal MIC, C. neoformans; format: cell-based; conditions: Cryptococcus neoformans ATCC208821; mean (n = 2)
Protocol: For the antifungal assay, fungi strains were cultured for 3 days on yeast extract-peptone dextrose (YPD) agar at 30 °C. A yeast suspension of 1 × 10^6 to 5 × 10^6 CFU/mL was prepared from five colonies. These stock suspensions were diluted with yeast nitrogen base (YNB) (Becton Dickinson, 233520) broth to a final concentration of 2.5 × 10^3 CFU/mL. The compounds were serially diluted 2-fold across the wells of 96-well plates (Corning 3641, nonbinding surface), with compound concentrations ranging from 0.015 to 64 μg/mL and final volumes of 50 μL, plated in duplicate. Then, 50 μL of the fungi suspension that was previously prepared in YNB broth to the final concentration of 2.5 × 10^3 CFU/mL was added to each well of the compound-containing plates, giving a final compound concentration range of 0.008 to 32 μg/mL. Plates were covered and incubated at 35 °C for 36 h without shaking. C. albicans MICs were determined by measuring the absorbance at OD530. For C. neoformans, resazurin was added at 0.006% final concentration to each well and incubated for a further 3 h before MICs were determined by measuring the absorbance at OD570–600.
(§1) Colistin and vancomycin were used as positive bacterial inhibitor standards for Gram-negative and Gram-positive bacteria, respectively. Fluconazole was used as a positive fungal inhibitor standard for C. albicans and C. neoformans. The antibiotics were provided in 4 concentrations, with 2 above and 2 below its MIC value, and plated into the first 8 wells of column 23 of the 384-well NBS plates. The quality control (QC) of the assays was determined by the antimicrobial controls and the Z′-factor (using positive and negative controls).

[2] = HEK293 cytotoxicity assay (resazurin); format: cell-based, human; conditions: human; for CC50 at 20 h: concentration at 50% cytotoxicity on HEK293 cells, mean (n = 2)
Protocol: For the HEK293 cytotoxicity assay, cells were counted manually in a Neubauer hemocytometer and plated at a density of 5000 cells/well into each well of the 384-well plates containing the 25× (2 μL) concentrated compounds. The medium used was Dulbecco’s modified eagle medium (DMEM) supplemented with 10% fetal bovine serum (FBS). Cells were incubated together with the compounds for 20 h at 37 °C, 5% CO2. To measure cytotoxicity, 5 μL (equals 100 μM final) of resazurin was added to each well after incubation, and incubated for further 3 h at 37 °C with 5% CO2. After final incubation fluorescence intensity was measured as Fex 560/10 nm, em 590/10 nm (F560/590) using a Tecan M1000 Pro monochromator plate reader. CC50 values (concentration at 50% cytotoxicity) were calculated by normalizing the fluorescence readout, with 74 μg/mL tamoxifen as negative control (0%) and normal cell growth as positive control (100%). The concentration-dependent percentage cytotoxicity was fitted to a dose response function (using Pipeline Pilot) and CC50 values determined.

[3] = test system: Staphylococcus aureus ATCC43300 (MRSA); assay: MIC, MRSA ATCC43300 (CO-ADD protocol); format: cell-based; conditions: for MIC: Staphylococcus aureus, read-out: MIC (µg/mL) MRSA
Excerpt: Additional antimicrobial evaluation against Staphylococcus aureus MRSA (ATCC43300), Pseudomonas aeruginosa (ATCC27853), Escherichia coli (ATCC25922), Klebsiella pneumoniae (ATCC700603), Acinetobacter baumannii (ATCC19606), Candida albicans (ATCC90028), and Cryptococcus neoformans (ATCC208821) was undertaken at the Community for Open Antimicrobial Drug Discovery at The University of Queensland (Australia) according to their standard protocols. For antimicrobial assays, the tested strains were cultured in either Luria broth (LB) (In Vitro Technologies, USB75852, Noble Park North, Australia), nutrient broth (NB) (Becton Dickson, 234000, Macquarie Park, Australia), or cation-adjusted MHB at 37 °C overnight. A sample of culture was then diluted 40-fold in fresh MHB and incubated at 37 °C for 1.5−2 h. The compounds were serially diluted 2-fold across the wells of 96-well plates (Corning 3641, Tewksbury, MA, USA, nonbinding surface), with compound concentrations ranging from 0.015 to 64 μg/mL, plated in duplicate. The resultant mid log phase cultures were diluted to the final concentration of 1 × 10^6 CFU/mL; then, 50 μL was added to each well of the compound containing plates giving a final compound concentration range of 0.008 to 32 μg/mL and a cell density of 5 × 10^5 CFU/mL. All plates were then covered and incubated at 37 °C for 18 h. Resazurin was added at 0.001% final concentration to each well and incubated for 2 h before MICs were read by eye.
as §1

[4] = test system: human red blood cells; assay: Hemolytic assay; format: cell-based; conditions: concentration at 10% hemolytic activity on human red blood cells; mean (n = 2)
Protocol: Human whole blood was washed three times with 3 volumes of 0.9% NaCl and then resuspended in same to a concentration of 0.5 × 10^8 cells/mL, as determined by manual cell count in a Neubauer hemocytometer. The washed cells were then added to the 384-well compound-containing plates for a final volume of 50 μL. After a 10 min shake on a plate shaker the plates were then incubated for 1 h at 37 °C. After incubation, the plates were centrifuged at 1000 g for 10 min to pellet cells and debris, 25 μL of the supernatant was then transferred to a polystyrene 384-well assay plate. Hemolysis was determined by measuring the supernatant absorbance at […] (OD405). The absorbance was measured using a Tecan M1000 Pro monochromator plate reader. HC10 and HC50 (concentration at 10% and 50% hemolysis, respectively) were calculated by curve fitting the inhibition values vs. log(concentration) using a sigmoidal dose–response function with variable fitting values for top, bottom and slope.

[5] = test system: Staphylococcus aureus ATCC25923; assay: MIC by broth dilution, S. aureus ATCC25923; format: cell-based; conditions: Staphylococcus aureus ATCC25923; mean (n = 3)
Protocol: The susceptibility of S. aureus (ATCC25923) to antibiotics and compounds was determined in microplates using the standard broth dilution method in accordance with the recommendations of the Comité de l’AntibioGramme de la Société Française de Microbiologie (CA-SFM) as previously described. Briefly, the minimal inhibitory concentrations (MICs) were determined with an inoculum of 10^5 CFU in 200 µL of Mueller-Hinton broth (MHB) containing two-fold serial dilutions of each drug. […] To determine all MICs, the measurements were independently repeated in triplicate.

[6] = Staphylococcus aureus ATCC43300 (MRSA), mean (n = 2)

Compound | MIC [1] [µg/mL] | MIC [3, 6] [µg/mL] | MIC [5] [µg/mL] | melting point [°C] | CC50 at 20 h [2] [µg/mL] | HC10 [4] [µg/mL] | MIC [3] [µg/mL] | HC10 (µg/mL) [4] | IC50 at 20 h ([2]; HEK293 cells, positive control) [µg/mL] | anti-MRSA activity (in words) ([3]; result in words)
COc1ccc(Cn2cncc2-c2c[nH]c3ccccc23)cc1 [Compound 11, 3-(1-(4-Methoxybenzyl)-1H-imidazol-5-yl)-1H-indole] | > 32 | 32 (≈ 105 µM) | > 200 | 159 to 160 | 25.6 (≈ 84.4 µM) | >32 | – | – | – | –
CN[C@H](CC(C)C)C(=O)N[C@H]1C(=O)N[C@@H](CC(N)=O)C(=O)N[C@H]2C(=O)N[C@H]3C(=O)N[C@H](C(=O)N[C@H](C(=O)O)c4cc(O)cc(O)c4-c4cc3ccc4O)[C@H](O)c3ccc(c(Cl)c3)Oc3cc2cc(c3O[C@@H]2O[C@H](CO)[C@@H](O)[C@H](O)[C@H]2O[C@H]2C[C@](C)(N)[C@H](O)[C@H](C)O2)Oc2ccc(cc2Cl)[C@H]1O [vancomycin, reference compound] | – | – | – | – | – | – | 1 (≈ 0.69 µM) | – | – | –
Brc1ccc2[nH]cc(-c3cncn3CCc3ccccc3)c2c1 [Compound 21, 5-Bromo-3-(1-phenethyl-1H-imidazol-5-yl)-1H-indole] | 32 (≈ 87.4 µM) | 16 (≈ 43.7 µM) | 6.25 (≈ 17.1 µM) | 110 to 111 | 10.6 (≈ 28.9 µM) | >32 | – | – | – | –
COc1ccc(CCn2cncc2-c2c[nH]c3cc(Cl)ccc23)cc1 [Compound 2, 6-Chloro-3-(1-(4-methoxyphenethyl)-1H-imidazol-5-yl)-1H-indole] | 32 (≈ 91 µM) | 16 (≈ 45.5 µM) | > 200 | 165 to 166 | 22.5 (≈ 64 µM) | >32 | – | – | – | –
c1ccc(CCn2cncc2-c2c[nH]c3ccccc23)cc1 [Compound 1, 3-(1-Phenethyl-1H-imidazol-5-yl)-1H-indole] | > 32 | 16 (≈ 55.7 µM) | > 200 | 69 to 70 | 19.3 (≈ 67.2 µM) | >32 | – | – | – | –
Fc1ccc2c(-c3cncn3CCc3ccccc3)c[nH]c2c1 [Compound 18, 6-Fluoro-3-(1-phenethyl-1H-imidazol-5-yl)-1H-indole] | > 32 | 32 (≈ 105 µM) | 25 (≈ 81.9 µM) | – | 16.3 (≈ 53.4 µM) | – | – | >32^c µg/mL | – | –
Clc1ccc2[nH]cc(-c3cncn3CCc3ccccc3)c2c1 [Compound 19, 5-Chloro-3-(1-phenethyl-1H-imidazol-5-yl)-1H-indole] | > 32 | 16 (≈ 49.7 µM) | 12.5 (≈ 38.8 µM) | > 200 | 17.3 (≈ 53.8 µM) | >32 | – | – | – | –
COc1ccc(Cn2cncc2-c2c[nH]c3cc(Br)ccc23)cc1 [Compound 17, 6-Bromo-3-(1-(4-methoxybenzyl)-1H-imidazol-5-yl)-1H-indole] | 32 (≈ 83.7 µM) | 32 (≈ 83.7 µM) | 25 (≈ 65.4 µM) | 188 to 189 | 11.1 (≈ 29 µM) | >32 | – | – | – | –
CC/C(=C(\c1ccccc1)c1ccc(OCCN(C)C)cc1)c1ccccc1 [Tamoxifen, reference compound] | – | – | – | – | – | – | – | – | 9 (≈ 24.2 µM) | –
Fc1ccc2[nH]cc(-c3cncn3CCc3ccccc3)c2c1 [Compound 3, 5-Fluoro-3-(1-phenethyl-1H-imidazol-5-yl)-1H-indole] | – | – | – | 127 to 130 | – | – | – | – | – | devoid of activity

Second part, led by results:

MIC [1] [µg/mL] | MIC [3, 6] [µg/mL] | MIC [5] [µg/mL] | melting point [°C] | Compound | CC50 at 20 h [2] [µg/mL] | HC10 [4] [µg/mL] | MIC [3] [µg/mL] | HC10 (µg/mL) [4] | IC50 at 20 h ([2]; HEK293 cells, positive control) [µg/mL] | anti-MRSA activity (in words) ([3]; result in words)
> 32 | 32 (≈ 92.1 µM) | > 200 | – | COc1ccc(OC)c(CCn2cncc2-c2c[nH]c3ccccc23)c1 [Compound 29, 3-(1-(2,5-Dimethoxyphenethyl)-1H-imidazol-5-yl)-1H-indole] | 11.5 (≈ 33.1 µM) | >32 | – | – | – | –
32 (≈ 87.4 µM) | 16 (≈ 43.7 µM) | 12.5 (≈ 34.1 µM) | – | Brc1ccc2c(-c3cncn3CCc3ccccc3)c[nH]c2c1 [Compound 22, 6-Bromo-3-(1-phenethyl-1H-imidazol-5-yl)-1H-indole] | 12.7 (≈ 34.7 µM) | >32 | – | – | – | –
> 32 | 16 (≈ 47.7 µM) | 100 (≈ 298 µM) | – | COc1ccc(CCn2cncc2-c2c[nH]c3cc(F)ccc23)cc1 [Compound 25, 6-Fluoro-3-(1-(4-methoxyphenethyl)-1H-imidazol-5-yl)-1H-indole] | 27 (≈ 80.5 µM) | >32 | – | – | – | –
> 32 | 16 (≈ 37.5 µM) | 25 (≈ 58.6 µM) | 141 to 142 | COc1ccc(OC)c(CCn2cncc2-c2c[nH]c3ccc(Br)cc23)c1 [Compound 34, 5-Bromo-3(1-(2,5-dimethoxyphenethyl)-1H-imidazol-5-yl)-1H-indole] | 6.2 (≈ 14.5 µM) | >32 | – | – | – | –
– | – | 0.5 to 1 (≈ 1.55 to 3.09 µM) | – | O=C(N[C@H](CO)[C@H](O)c1ccc([N+](=O)[O-])cc1)C(Cl)Cl [chloramphenicol, reference compound] | – | – | – | – | – | –
> 32 | 8 (≈ 20.2 µM) | 12.5 (≈ 31.5 µM) | 157 to 158 | COc1ccc(CCn2cncc2-c2c[nH]c3ccc(Br)cc23)cc1 [Compound 27, 5-Bromo-3-(1-(4-methoxyphenethyl)-1H-imidazol-5-yl)-1H-indole] | 16 (≈ 40.4 µM) | >32 | – | – | – | –
> 32 | 32 (≈ 101 µM) | 100 (≈ 315 µM) | 158 to 159 | COc1ccc(CCn2cncc2-c2c[nH]c3ccccc23)cc1 [Compound 23, 3-(1-(4-Methoxyphenethyl)-1H-imidazol-5-yl)-1H-indole] | 24.5 (≈ 77.2 µM) | >32 | – | – | – | –
– | – | 12.5 (≈ 21.5 µM) | – | [H]/N=C(/N)N[C@H]1[C@H](O)[C@@H](O)[C@H](O[C@@H]2O[C@@H](C)[C@](O)(C=O)[C@H]2O[C@@H]2O[C@@H](CO)[C@H](O)[C@@H](O)[C@@H]2NC)[C@@H](N/C(N)=N\[H])[C@@H]1O [streptomycin, reference compound] | – | – | – | – | – | –
